Measured values as given in ChEMBL document CHEMBL1201862, “PubChem BioAssay data set” (2004).
Activity calls are given as the source filed them.

Key:
[1] = target: Ion channel NompC (Danio rerio, UniProt Q7T1G6); assay: Fluorescence counterscreen assay for TRPML3 agonists: dose response cell-based high-throughput screening assay to identify agonists of the transient receptor potential channel N1 (TRPN1). [Related pubchem assays: 1526, 1424, 1448 ]; assay type: functional
[2] = target: Mucolipin-3 (Homo sapiens, UniProt Q8TDD5); assay: Dose response cell-based high-throughput screening assay for agonists of the transient receptor potential channel ML3 (TRPML3). [Related pubchem assays: 1526, 1424, 1448 ]; assay type: functional
Chain of Mucolipin-3 (Q8TDD5 whole entry): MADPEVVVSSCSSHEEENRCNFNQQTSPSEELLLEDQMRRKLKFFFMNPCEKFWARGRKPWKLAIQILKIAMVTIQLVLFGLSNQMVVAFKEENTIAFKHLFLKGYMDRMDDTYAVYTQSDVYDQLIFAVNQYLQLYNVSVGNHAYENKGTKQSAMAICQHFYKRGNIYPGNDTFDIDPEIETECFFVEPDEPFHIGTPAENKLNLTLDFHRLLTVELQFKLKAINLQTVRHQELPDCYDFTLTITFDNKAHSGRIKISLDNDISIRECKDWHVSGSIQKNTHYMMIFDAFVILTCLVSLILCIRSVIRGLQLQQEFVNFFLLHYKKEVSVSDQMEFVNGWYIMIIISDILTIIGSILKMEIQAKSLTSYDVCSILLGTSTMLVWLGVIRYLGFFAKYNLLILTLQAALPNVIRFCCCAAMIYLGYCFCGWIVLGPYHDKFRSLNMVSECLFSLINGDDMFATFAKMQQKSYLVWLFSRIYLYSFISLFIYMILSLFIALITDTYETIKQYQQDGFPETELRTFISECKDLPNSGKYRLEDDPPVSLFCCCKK

[3] = viability of PTEN-deleted HCT116 cells – cell-based, HCT116 PTEN knockout, dose response (AID 1047); assay type: functional;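 note: HCT116 colon tumor cells with PTEN knocked out; cells exposed to compound for 60 hours before readout; potency for loss of cell viability measured by luminescence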
[4] = HPDE-C7 pancreatic duct cell viability loss – fluorescence, HTS (AID 430); assay type: functional, cell-based; conditions: Homo sapiens
[5] = target: T1, Apoptotic protease-activating factor 1 (Homo sapiens, UniProt O14727); assay type: functional
T1 sequence (O14727 whole entry): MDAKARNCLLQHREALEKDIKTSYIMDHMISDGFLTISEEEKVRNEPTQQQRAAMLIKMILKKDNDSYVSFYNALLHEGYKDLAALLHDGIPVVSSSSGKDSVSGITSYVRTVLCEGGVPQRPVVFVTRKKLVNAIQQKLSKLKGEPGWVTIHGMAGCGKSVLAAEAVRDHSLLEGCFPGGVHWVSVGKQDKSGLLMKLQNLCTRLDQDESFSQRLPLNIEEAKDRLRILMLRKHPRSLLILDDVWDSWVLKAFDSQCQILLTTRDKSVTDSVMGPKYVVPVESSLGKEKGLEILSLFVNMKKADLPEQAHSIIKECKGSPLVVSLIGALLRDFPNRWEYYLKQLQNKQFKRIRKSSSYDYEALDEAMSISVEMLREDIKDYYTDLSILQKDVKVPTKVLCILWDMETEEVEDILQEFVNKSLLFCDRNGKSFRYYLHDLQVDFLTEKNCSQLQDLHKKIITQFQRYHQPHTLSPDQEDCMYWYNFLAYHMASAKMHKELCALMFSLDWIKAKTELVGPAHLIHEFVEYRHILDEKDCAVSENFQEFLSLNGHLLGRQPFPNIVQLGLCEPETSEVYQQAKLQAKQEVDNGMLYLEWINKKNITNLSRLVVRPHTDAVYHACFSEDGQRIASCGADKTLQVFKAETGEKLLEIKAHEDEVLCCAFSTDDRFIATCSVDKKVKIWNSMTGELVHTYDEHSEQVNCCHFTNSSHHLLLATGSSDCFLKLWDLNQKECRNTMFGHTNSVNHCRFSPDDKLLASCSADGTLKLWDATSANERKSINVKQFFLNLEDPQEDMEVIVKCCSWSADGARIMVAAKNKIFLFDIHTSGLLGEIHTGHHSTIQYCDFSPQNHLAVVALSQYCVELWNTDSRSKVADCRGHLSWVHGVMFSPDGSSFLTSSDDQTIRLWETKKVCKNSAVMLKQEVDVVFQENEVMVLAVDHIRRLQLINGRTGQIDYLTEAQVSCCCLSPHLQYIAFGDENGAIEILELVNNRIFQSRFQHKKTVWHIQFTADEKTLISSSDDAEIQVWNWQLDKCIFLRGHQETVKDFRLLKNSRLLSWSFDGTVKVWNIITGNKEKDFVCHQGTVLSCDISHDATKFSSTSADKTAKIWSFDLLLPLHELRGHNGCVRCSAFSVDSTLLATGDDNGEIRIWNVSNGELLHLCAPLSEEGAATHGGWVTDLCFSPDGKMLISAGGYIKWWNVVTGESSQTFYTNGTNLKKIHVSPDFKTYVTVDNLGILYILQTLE

[6] = viability of HCT116 lacking mutant beta-catenin – cell-based, human colon tumor, dose response (AID 1045); assay type: functional;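 note: HCT116 colon tumor cells with beta catenin knocked out; cells exposed to compound for 60 hours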
[7] = viability loss of HPDE-C7K cells – cell-based, fluorescence, HTS, primary screen (AID 431); assay type: functional; conditions: Homo sapiens
[8] = target: T2, Estrogen receptor beta (Homo sapiens, UniProt Q92731);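 note: recombinant ER-beta bound to coactivator SRC1 peptide in presence of estradiol agonist; inhibitors block coactivator peptide binding and lower the FRET signal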
T2 sequence (Q92731 whole entry): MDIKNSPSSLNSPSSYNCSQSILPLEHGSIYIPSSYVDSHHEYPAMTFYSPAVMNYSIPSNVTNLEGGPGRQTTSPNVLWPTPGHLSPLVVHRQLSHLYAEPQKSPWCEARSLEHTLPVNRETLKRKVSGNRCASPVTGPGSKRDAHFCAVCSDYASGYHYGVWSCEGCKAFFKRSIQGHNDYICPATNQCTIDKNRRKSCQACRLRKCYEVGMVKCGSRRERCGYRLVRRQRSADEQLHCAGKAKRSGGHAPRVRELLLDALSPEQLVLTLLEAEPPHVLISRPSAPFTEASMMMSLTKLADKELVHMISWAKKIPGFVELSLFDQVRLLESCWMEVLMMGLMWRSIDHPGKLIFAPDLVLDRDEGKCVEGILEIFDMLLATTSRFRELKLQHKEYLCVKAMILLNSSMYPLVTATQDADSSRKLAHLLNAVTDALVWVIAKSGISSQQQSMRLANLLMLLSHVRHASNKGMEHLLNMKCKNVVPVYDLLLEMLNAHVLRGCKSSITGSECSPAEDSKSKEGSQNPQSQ

[9] = target: Estrogen receptor (Homo sapiens, UniProt P03372);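 note: potency for inhibiting coactivator peptide recruitment to the receptor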
[10] = target: T3, Protein RecA (Mycobacterium tuberculosis, UniProt P9WHJ3); assay: Fluorescence Cell-Free Homogeneous Dose Retest to Identify Inhibitors of RecA-Intein Splicing Activity. [Related pubchem assays (depositor defined):AID2097, AID2223, AID489010, AID492950]; assay type: functional
T3 sequence (P9WHJ3 whole entry): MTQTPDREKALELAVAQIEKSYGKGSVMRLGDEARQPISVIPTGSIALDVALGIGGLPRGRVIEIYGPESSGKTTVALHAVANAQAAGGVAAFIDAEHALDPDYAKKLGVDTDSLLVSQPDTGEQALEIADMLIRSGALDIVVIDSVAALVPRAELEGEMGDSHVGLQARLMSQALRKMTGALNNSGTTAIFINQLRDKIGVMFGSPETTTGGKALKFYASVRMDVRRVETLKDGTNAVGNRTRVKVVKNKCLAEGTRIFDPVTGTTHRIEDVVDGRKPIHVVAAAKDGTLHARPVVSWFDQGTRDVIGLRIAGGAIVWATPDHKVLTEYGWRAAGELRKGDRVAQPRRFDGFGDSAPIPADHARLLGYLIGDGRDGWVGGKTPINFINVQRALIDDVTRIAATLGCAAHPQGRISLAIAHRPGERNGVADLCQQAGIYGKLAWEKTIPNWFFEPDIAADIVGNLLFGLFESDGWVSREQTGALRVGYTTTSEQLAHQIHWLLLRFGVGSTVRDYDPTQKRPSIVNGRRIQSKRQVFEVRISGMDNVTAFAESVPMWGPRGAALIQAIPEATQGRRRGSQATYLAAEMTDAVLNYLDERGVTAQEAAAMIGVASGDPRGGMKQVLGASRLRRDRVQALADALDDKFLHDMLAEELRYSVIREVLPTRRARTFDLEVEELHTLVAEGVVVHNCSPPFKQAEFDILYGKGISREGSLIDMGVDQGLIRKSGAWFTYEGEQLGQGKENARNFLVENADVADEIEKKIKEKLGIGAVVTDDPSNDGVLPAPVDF

[11] = target: T4, Replicative DNA helicase DnaB (Mycobacterium tuberculosis, UniProt P9WMR3); assay: DnaB intein splicing inhibitors, dose response, biochemical, cell-free fluorescence (AID 449749); assay type: functional
T4 sequence (P9WMR3 whole entry): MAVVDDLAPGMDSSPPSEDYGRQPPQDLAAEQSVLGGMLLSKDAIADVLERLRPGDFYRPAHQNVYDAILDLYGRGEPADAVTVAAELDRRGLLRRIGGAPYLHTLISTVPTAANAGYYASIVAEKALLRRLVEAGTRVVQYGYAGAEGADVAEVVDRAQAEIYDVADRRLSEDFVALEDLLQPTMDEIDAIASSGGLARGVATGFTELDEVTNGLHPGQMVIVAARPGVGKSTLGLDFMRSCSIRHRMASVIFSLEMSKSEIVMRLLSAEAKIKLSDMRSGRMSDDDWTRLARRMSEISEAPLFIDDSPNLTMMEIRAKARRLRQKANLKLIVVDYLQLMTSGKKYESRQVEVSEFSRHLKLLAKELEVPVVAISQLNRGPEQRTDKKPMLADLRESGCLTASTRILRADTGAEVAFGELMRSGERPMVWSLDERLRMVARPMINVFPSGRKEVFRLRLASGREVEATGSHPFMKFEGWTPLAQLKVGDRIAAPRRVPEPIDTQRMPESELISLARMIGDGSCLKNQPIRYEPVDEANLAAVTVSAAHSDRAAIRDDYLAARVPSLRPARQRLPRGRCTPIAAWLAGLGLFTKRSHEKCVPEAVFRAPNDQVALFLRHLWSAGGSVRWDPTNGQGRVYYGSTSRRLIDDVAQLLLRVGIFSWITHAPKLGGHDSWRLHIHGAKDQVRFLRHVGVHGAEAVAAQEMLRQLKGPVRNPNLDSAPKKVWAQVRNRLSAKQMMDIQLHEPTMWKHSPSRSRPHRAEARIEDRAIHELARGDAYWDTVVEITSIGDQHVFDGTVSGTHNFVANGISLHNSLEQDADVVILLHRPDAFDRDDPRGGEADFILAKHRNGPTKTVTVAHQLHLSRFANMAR

[12] = target: T2, Estrogen receptor beta; assay: blockers of SRC-3 recruitment to ERβ – biochemical, ELISA, streptavidin-HRP readout, orthogonal assay, confirmation (AID 1060)
[13] = target: T5, Corticotropin-releasing factor receptor 2/Corticotropin-releasing factor-binding protein (Homo sapiens, UniProt P24387+Q13324); assay: activators of CRF receptor 2 with binding protein – uHTS hits, confirmation (AID 602473); assay type: functional; conditions: read-out: EC50_Mean
T5 sequence (Q13324 whole entry): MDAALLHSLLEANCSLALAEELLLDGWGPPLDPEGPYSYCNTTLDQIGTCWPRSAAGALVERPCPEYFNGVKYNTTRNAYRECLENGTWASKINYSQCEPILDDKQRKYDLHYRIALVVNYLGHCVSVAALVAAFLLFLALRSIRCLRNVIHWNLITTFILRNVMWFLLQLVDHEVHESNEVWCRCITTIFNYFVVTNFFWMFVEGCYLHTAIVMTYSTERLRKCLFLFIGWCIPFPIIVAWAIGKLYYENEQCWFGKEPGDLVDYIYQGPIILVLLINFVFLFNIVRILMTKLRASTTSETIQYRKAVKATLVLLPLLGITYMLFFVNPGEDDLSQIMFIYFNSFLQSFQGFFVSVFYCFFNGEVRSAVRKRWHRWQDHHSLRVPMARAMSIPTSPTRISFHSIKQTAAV
T5 sequence (P24387 whole entry): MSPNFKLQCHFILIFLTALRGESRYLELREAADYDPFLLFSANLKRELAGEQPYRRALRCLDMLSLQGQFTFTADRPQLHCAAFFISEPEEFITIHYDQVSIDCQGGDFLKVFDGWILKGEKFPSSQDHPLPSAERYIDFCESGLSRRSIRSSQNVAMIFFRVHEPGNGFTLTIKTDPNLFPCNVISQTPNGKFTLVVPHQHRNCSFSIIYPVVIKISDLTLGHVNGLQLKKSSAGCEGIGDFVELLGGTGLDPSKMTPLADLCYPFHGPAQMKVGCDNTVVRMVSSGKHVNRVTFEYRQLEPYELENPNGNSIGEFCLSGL

[14] = target: Luciferin 4-monooxygenase (Photinus pyralis, UniProt P08659); assay: Counter Screen for Luciferase-based Assay Positives. [Related pubchem assays: 620, 618, 411 ]
Chain of Luciferin 4-monooxygenase (P08659 whole entry): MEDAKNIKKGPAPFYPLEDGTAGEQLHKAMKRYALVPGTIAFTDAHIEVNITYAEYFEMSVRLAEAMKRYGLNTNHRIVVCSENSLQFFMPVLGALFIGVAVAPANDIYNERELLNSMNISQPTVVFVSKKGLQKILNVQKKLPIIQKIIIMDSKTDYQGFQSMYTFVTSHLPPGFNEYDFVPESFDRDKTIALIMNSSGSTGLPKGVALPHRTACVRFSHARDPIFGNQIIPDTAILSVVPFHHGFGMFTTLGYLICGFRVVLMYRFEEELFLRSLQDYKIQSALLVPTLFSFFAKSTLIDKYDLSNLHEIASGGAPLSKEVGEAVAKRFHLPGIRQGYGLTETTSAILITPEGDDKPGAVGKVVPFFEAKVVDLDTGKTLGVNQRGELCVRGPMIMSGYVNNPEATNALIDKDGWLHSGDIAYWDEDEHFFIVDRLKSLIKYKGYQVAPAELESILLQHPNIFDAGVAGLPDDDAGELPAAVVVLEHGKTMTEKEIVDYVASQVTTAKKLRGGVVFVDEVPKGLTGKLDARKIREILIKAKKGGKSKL

[15] = tested on: HT-1080; assay: HT1080 cell viability loss – fluorescence readout (AID 620); assay type: functional, cell-based; conditions: Homo sapiens
[16] = target: Beta-lactamase (Salmonella choleraesuis (strain SC-B67), UniProt Q5J463)
Chain of Beta-lactamase (Salmonella choleraesuis (strain SC-B67), UniProt Q5J463) (Q5J463 whole entry): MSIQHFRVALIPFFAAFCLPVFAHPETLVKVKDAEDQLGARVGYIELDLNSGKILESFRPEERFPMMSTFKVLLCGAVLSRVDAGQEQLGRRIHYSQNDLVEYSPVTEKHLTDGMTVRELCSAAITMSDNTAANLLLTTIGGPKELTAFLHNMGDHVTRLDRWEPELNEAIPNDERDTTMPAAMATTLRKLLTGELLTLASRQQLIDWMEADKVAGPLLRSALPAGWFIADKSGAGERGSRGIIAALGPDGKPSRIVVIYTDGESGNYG

[17] = target: Beta-lactamase (Pseudomonas aeruginosa, UniProt Q79MP6);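 note: biochemical dose-response test of metallo-beta-lactamase enzyme inhibition, read out by epi-absorbance; purified recombinant IMP-1 metallo-beta-lactamase with nitrocefin as substrate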
Chain of Beta-lactamase (Pseudomonas aeruginosa, UniProt Q79MP6) (Q79MP6 whole entry): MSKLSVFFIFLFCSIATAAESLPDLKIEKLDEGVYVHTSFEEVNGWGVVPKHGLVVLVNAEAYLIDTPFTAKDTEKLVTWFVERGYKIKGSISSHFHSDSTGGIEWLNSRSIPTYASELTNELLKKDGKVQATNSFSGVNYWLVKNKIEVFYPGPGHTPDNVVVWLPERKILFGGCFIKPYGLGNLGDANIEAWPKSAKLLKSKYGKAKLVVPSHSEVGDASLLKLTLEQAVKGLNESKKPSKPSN

[18] = target: Voltage-dependent T-type calcium channel subunit alpha-1H (Homo sapiens, UniProt O95180); assay type: functional;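 note: channel activity triggered by adding a high calcium stimulation buffer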
[19] = target: Protein-tyrosine kinase 2-beta (Homo sapiens, UniProt Q14289);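 note: potency of inhibitors of PYK2 kinase phosphorylation of poly-GT substrate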
Chain of Protein-tyrosine kinase 2-beta (Q14289 whole entry): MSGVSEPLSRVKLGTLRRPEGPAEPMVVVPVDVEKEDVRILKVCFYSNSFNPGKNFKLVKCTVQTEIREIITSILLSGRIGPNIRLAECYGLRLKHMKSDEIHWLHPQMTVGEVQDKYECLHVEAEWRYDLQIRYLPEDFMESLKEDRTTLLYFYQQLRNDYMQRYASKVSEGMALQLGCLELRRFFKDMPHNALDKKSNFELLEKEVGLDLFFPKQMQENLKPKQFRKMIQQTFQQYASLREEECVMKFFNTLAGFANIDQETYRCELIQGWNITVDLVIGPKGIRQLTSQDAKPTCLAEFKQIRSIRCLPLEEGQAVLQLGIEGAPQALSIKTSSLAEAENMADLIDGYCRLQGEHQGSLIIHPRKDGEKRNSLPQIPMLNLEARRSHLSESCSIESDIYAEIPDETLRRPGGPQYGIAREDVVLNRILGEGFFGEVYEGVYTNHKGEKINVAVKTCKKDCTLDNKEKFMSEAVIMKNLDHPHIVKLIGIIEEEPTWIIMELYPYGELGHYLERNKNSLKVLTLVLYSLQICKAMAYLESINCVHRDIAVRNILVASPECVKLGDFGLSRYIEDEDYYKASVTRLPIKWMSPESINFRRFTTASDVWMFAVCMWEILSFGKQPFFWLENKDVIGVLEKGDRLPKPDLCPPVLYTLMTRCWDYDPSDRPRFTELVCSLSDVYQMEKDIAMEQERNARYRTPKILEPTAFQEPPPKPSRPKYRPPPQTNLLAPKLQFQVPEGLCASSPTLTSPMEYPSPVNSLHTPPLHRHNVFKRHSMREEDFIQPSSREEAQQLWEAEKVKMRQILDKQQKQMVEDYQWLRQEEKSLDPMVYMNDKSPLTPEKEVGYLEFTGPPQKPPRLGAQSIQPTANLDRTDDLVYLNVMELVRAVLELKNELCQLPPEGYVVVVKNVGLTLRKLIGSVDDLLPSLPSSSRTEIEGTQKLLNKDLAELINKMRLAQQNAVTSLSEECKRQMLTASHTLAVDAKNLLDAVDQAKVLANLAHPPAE

[20] = luciferase reporter signal suppression in cells – H4 neuroglioma cells, luminescence, dose response (AID 1990); assay type: functional, cell-based
[21] = Luminescence Cell-Based Dose Response HTS to Identify Inhibitors of 5'UTR Stem-Loop Driven Prion Protein mRNA Translation in H4 Neuroglioblastoma Cells. [Related pubchem assays: 1827 (Project Summary), 1813 (Primary HTS)]; assay type: functional
[22] = alpha-synuclein stem-loop luciferase translation blockers – H4 neuroglioma cells, luminescence, confirmation (AID 1988); assay type: functional, cell-based

Chain of Ion channel NompC (Q7T1G6 whole entry): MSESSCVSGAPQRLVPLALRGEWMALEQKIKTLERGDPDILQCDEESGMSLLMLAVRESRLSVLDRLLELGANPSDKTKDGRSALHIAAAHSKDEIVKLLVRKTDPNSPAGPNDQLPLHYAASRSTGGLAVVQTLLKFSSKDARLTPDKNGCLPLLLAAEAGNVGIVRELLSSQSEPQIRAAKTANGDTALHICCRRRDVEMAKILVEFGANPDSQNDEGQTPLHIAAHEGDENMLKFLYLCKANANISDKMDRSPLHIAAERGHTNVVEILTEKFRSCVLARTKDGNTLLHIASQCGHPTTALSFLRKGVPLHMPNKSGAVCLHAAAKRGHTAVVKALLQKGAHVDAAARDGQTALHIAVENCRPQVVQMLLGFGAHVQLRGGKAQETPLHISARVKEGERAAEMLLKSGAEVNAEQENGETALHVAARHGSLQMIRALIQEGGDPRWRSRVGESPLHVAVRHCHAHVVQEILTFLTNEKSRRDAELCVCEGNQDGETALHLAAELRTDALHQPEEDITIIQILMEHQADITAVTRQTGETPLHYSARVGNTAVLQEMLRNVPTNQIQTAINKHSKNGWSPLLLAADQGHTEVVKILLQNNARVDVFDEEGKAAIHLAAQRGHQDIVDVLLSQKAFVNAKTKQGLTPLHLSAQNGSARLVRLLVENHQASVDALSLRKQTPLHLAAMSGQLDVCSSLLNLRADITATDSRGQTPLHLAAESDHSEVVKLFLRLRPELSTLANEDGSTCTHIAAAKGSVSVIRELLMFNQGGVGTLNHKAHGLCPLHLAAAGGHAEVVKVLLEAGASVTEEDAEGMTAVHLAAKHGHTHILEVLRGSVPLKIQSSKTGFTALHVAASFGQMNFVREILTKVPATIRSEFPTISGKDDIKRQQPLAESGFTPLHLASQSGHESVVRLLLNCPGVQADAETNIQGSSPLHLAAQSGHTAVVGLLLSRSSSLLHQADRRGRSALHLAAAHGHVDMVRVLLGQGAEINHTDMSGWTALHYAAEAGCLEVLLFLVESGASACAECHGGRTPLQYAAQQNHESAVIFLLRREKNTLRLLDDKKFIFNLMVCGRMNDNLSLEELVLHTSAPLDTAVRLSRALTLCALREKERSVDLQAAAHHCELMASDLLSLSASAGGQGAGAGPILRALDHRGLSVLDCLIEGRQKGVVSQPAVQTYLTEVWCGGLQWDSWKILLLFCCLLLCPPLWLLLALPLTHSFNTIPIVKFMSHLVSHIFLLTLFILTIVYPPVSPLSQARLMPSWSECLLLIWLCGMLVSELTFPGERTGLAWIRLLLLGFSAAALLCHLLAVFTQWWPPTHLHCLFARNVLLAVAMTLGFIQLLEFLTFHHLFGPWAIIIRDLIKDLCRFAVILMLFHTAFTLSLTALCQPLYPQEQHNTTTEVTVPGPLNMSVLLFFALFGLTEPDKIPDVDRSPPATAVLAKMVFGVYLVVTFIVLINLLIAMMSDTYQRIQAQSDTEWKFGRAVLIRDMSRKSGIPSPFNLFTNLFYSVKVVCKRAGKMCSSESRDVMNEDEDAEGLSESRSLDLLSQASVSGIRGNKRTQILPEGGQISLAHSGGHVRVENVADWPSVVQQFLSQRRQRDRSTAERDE

In the case of CC(C)N(C(=O)c1ccc2nc(-c3ccccc3)c(-c3ccccc3)nc2c1)C(C)C, the EC50 [1] is reported as > 29.9 µM (not active) and the EC50 [2] is reported as 1.52 µM (active).
With Nc1c(C(=O)NCc2ccc3c(c2)OCO3)c2nc3ccccc3nc2n1CCCN1CCOCC1 the EC50 [3] was 20.6 µM (active), the EC50 [4] was 9.92 µM (active) and the IC50 [5] was 76.8 µM (active). For the same compound, the EC50 [6] was 20.2 µM (active) and the EC50 [7] was 13.2 µM (active).
With C/N=C1\SC(CC(=O)Nc2ccc(C(C)=O)cc2)C(=O)N1C (centres undefined) the IC50 [8] was > 50 µM (not active) and the IC50 [9] was > 50 µM (not active).
With COc1ccc(-c2nnc(SC(=O)N3c4ccccc4Sc4ccccc43)o2)cc1 the EC50 [4] was 12.5 µM (active), the EC50 [10] was 0.451 µM (active) and the AC50 [11] was 1.79 µM (active). For the same compound, the EC50 [7] was 8.96 µM (active).
In the case of CC12CCC(=O)N1C(C(=O)OCC(=O)Nc1sccc1C#N)CS2 (centres undefined), the IC50 [8] is reported as 14.4 µM (active) and the IC50 [12] is reported as 0.118 µM (not active).
With O=C(c1ccc([N+](=O)[O-])cc1)N(Cc1ccc(Cl)cc1Cl)N1C(=O)CCCC1=O the EC50 [1] was > 29.9 µM (not active), the EC50 [13] was > 53 µM (inactive) and the EC50 [2] was > 29.9 µM (not active).
With CCN(CC)c1ccc2cc(-c3nc4ccccc4[nH]3)c(=O)oc2c1 the EC50 [14] was < 0.2 µM (active), the EC50 [15] was > 50 µM (not active) and the IC50 [16] was 0.709 µM (active). The IC50 [17] was 3.24 µM (active), the EC50 [18] was 0.434 µM (active) and the IC50 [19] was 2.32 µM (active).
With O=c1c(Cl)c(N2CCCCC2)cnn1-c1nc2ccccc2[nH]1 the EC50 [20] was 2.55 µM (active), the EC50 [14] was 4.25 µM (active) and the EC50 [15] was > 50 µM (not active). The EC50 [21] was 34.4 µM (active) and the EC50 [22] was 2.68 µM (active).
